Data: patent US5491172A, “N-acyl sulfamic acid esters (or thioesters), N-acyl sulfonamides, and N-sulfonyl carbamic acid esters (or thioesters) as hypercholesterolemic agents” (Warner-Lambert Company, priority 1994, dated 1996)
Structures can show the parent of a compound that is named as a salt.

Experiments:
[1] = target: acyl-CoA:cholesterol acyltransferase (ACAT); assay: in vitro ACAT inhibition (LAI): radiolabeled cholesterol oleate formed from radiolabeled oleic acid in rat liver microsomes; assay type: biochemical; conditions: concentration required to inhibit enzyme activity by 50%
Procedure: The ability of representative compounds of the present invention to inhibit ACAT was measured using an in vitro test more fully described in Field FJ, Salone RG, Biochemica et Biophysica, 1982;712:557-570. The test assesses the ability of a test compound to inhibit the acylation of cholesterol by oleic acid by measuring the amount of radiolabeled cholesterol oleate formed from radiolabeled oleic acid in a tissue preparation containing rat liver microsomes.

[2] = in vivo screen APCC: blood cholesterol in rats fed overnight a high fat, high cholesterol (PCC) diet; conditions: male Sprague-Dawley rats, dosed at 4 PM, PCC diet with 0.5% cholic acid overnight, blood sampled 8 AM, dose not given
Source text: In one in vivo screen designated APCC, male Sprague-Dawley rats (200 to 225 g) were randomly divided into treatment groups and dosed at 4 PM with either vehicle (CMC/Tween) or suspensions of compounds in vehicle. The normal chow diet was then replaced with a high fat, high cholesterol diet (designated PCC) containing 0.5% cholic acid. The rats consumed this diet ad libitum during the night and were sacrificed at 8 AM to obtain blood samples for cholesterol analysis using standard procedures. Statistical differences between mean cholesterol values for the same vehicle were determined using analysis of variance followed by Fisher's least significant test.

Compound | IC50 [1] [µM] | IC50 ([1]; sodium salt) [µM] | % Change (mg/dl) in cholesterol [2] | % Change (mg/dl) in cholesterol ([2]; sodium salt) [%]
CC(C)c1cccc(C(C)C)c1OS(=O)(=O)NC(=O)C1CCc2ccccc2C1 (stereo not shown) [Example 29, sulfamic acid[(1,2,3,4-tetrahydro-2-naphthyl)carbonyl]-2,6-bis(1-methylethyl)phenylester] | 15 | – | -9% | –
CC(C)c1cccc(C(C)C)c1OS(=O)(=O)NC(=O)C1(c2ccccc2)CCCC1 [Example 30, sulfamic acid[(1-phenylcyclopentyl)carbonyl]-2,6-bis(1-methylethyl)phenyl ester] | 4.1 | – | -40% | –
CCC(C)C(C(=O)NS(=O)(=O)Oc1c(C(C)C)cccc1C(C)C)c1ccccc1 (stereo not shown) [Example 31, sulfamic acid(3-methyl-1-oxo-2-phenylpentyl)-2,6-bis(1-methylethyl)phenyl ester] | 3.3 | – | -30% | –
CCC(C(=O)NS(=O)(=O)Oc1c(C(C)C)cccc1C(C)C)c1ccccc1 (stereo not shown) [Example 32, sulfamic acid(1-oxo-2-phenylbutyl)-2,6-bis(1-methylethyl)phenyl ester] | 8.9 | – | -48% | –
CC(C)c1cccc(C(C)C)c1OS(=O)(=O)NC(=O)C(c1ccccc1)C1CCCCC1 (stereo not shown) [Example 33, sulfamic acid(cyclohexylphenylacetyl)-2,6-bis(1-methylethyl)phenyl ester] | 9.3 | – | -63% | –
CC(C)c1cccc(C(C)C)c1OS(=O)(=O)NC(=O)C(C)(c1ccccc1)c1ccccc1 [Example 34, sulfamic acid(1-oxo-2,2-diphenylpropyl)-2,6-bis(1-methylethyl)phenyl ester] | 7.7 | – | -67% | –
CC(C)c1cccc(C(C)C)c1OS(=O)(=O)NC(=O)C(c1ccc(Cl)cc1)c1ccc(Cl)cc1 [Example 35, sulfamic acid[bis-(4-chlorophenyl)acetyl]-2,6-bis(1-methylethyl)phenyl ester] | 8.9 | – | -9% | –
CC(C)c1cccc(C(C)C)c1OS(=O)(=O)NC(=O)C1c2ccccc2Oc2ccccc21 [Example 36, sulfamic acid[(9H-xanthen-9-yl)carbonyl]-2,6-bis(1-methylethyl)phenyl ester] | 22 | – | -6% | –
CC(C)c1cccc(C(C)C)c1OS(=O)(=O)NC(=O)C1c2ccccc2-c2ccccc21 [Example 37, sulfamic acid[(9H-fluoren-9yl)carbonyl]-2,6-bis(1-methylethyl)phenyl ester] | 16 | – | -50% | –
CC(C)c1cccc(C(C)C)c1OS(=O)(=O)NC(=O)CCc1ccccc1 [Example 38, sulfamic acid(1-oxo-3-phenylpropyl)-2,6-bis(1-methylethyl)phenyl ester] | 31 | – | -16% | –
CC(C)c1cccc(C(C)C)c1OS(=O)(=O)NC(=O)C(Br)c1ccccc1 (stereo not shown) [Example 39, sulfamic acid[bromo(phenyl)acetyl]-2,6l-bis(1-methylethyl)phenyl ester] | 32 | – | +5% | –
CCC(C)C(C(=O)NS(=O)(=O)Oc1c(C(C)C)cccc1C(C)C)c1ccccc1 (stereo not shown) [Example 45, sulfamic acid(3-methyl-1-oxo-2-phenylpentyl)-2,6-bis(1-methylethyl)phenyl ester sodium salt] | – | 5.6 | – | -63
CC(C)c1cc(C(C)C)c(CC(=O)NS(=O)(=O)Oc2c(-c3ccccc3)cccc2-c2ccccc2)c(C(C)C)c1 [Example 48, sulfamic acid[[2,4,6-tris(1-methylethyl)phenyl]acetyl]-2,6-bis(phenyl)phenyl ester] | 8.3 | – | -73% | –

More lines, main results first:

IC50 [1] [µM] | IC50 ([1]; sodium salt) [µM] | Compound | % Change (mg/dl) in cholesterol [2] | % Change (mg/dl) in cholesterol ([2]; sodium salt) [%]
32 | – | CC(C)c1cc(C(C)C)c(C=CC(=O)NS(=O)(=O)Oc2c(C(C)C)cccc2C(C)C)c(C(C)C)c1 [Example 40, sulfamic acid[1-oxo-3-[2,4,6-tris-(1-methylethyl)phenyl]-2-propenyl]-2,6-bis-(1-methylethyl)phenyl ester] | -54% | –
28 | – | CC(C)c1cc(C(C)C)c(CCC(=O)NS(=O)(=O)Oc2c(C(C)C)cccc2C(C)C)c(C(C)C)c1 [Example 41, sulfamic acid[1-oxo-3-[2,4,6-tris(1-methylethyl)phenyl]propyl]-2,6-bis(1-methylethyl)phenyl ester] | -73% | –
7 | – | CC(=O)OC(C(=O)NS(=O)(=O)Oc1c(C(C)C)cccc1C(C)C)c1c(C(C)C)cc(C(C)C)cc1C(C)C (stereo not shown) [Example 42, sulfamic acid[(acetyloxy)[2,4,6-tris(1-methylethyl)phenyl]acetyl]-2,6-bis(1-methylethyl)phenyl ester] | -25% | –
31 | – | CC(C)c1cc(C(C)C)c(C(O)C(=O)NS(=O)(=O)Oc2c(C(C)C)cccc2C(C)C)c(C(C)C)c1 (stereo not shown) [Example 43, sulfamic acid[hydroxy[2,4,6-tris(1-methylethyl)phenyl]acetyl]-2,6-bis(1-methylethyl)phenyl ester] | -45% | –
9.4 | – | CC(C)c1cc(C(C)C)c(C(F)C(=O)NS(=O)(=O)Oc2c(C(C)C)cccc2C(C)C)c(C(C)C)c1 (stereo not shown) [Example 44, sulfamic acid[fluoro[2,4,6-tris(1-methylethyl)phenyl]acetyl]-2,6-bis(1-methylethyl)phenyl ester] | -74% | –
34 | – | CC(C)c1cc(C(C)C)c(OCC(=O)NS(=O)(=O)Oc2c(C(C)C)cccc2C(C)C)c(C(C)C)c1 [Example 46, sulfamic acid[[2,4,6-tris(1-methylethyl)phenoxy]acetyl]-2,6-bis(1-methylethyl)phenyl ester] | -57% | –
38 | – | CC(C)c1cccc(C(C)C)c1OCC(=O)NS(=O)(=O)Oc1c(C(C)C)cccc1C(C)C [Example 47, sulfamic acid[[2,6-bis(1-methylethyl)phenoxy]acetyl]-2,6-bis(1-methylethyl)phenyl ester] | -46% | –
